Drawing on patent US20230174521A1, “NOVEL DIACYLGLYCERIDE O-ACYLTRANSFERASE 2 INHIBITORS” (Merck Sharp & Dohme LLC, priority 2020, published 2023), this text covers IC50 for 12 molecules.

Each structure is given as a SMILES string.

This assay concerns the target T1, human DGAT2 (hDGAT2) (Homo sapiens, UniProt Q96PD7).
T1 construct: made in house; host or cells: Sf-9 insect cells (baculovirus infection); membrane fraction
T1 sequence (Q96PD7 1-388): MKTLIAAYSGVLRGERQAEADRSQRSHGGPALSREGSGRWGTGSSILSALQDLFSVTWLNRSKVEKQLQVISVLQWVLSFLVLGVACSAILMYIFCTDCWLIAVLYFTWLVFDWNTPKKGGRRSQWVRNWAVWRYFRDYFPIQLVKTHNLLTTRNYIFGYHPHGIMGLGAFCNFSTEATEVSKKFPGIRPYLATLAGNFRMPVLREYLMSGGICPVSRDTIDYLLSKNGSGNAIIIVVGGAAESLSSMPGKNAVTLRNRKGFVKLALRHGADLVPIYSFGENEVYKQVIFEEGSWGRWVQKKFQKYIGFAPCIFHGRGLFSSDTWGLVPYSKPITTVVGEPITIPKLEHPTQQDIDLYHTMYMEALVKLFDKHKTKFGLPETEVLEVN
Nature of the assay: DGAT2 enzymatic activity assay (LC/MS/MS detection of 13C18-triolein, Sf-9 membrane prep). The following applies: hDGAT2 Sf-9 membrane, 25 μM diolein, 5 μM 13C oleoyl-CoA, rt. The format is biochemical. How it is done: Sf-9 insect cells were maintained in Grace's insect cell culture medium with 10% heated-inactivated fetal bovine serum, 1% Pluronic F-68 and 0.14 μg/ml Kanamycine sulfate at 27° C. in a shaker incubator. After infection with untagged baculovirus expressing human DGAT2 (hDGAT2) at multiplicity of infection (MOI) 3 for 48 hours, cells were harvested. Cell pellets were suspended in buffer containing 10 mM Tris-HCl pH 7.5, 1 mM EDTA, 250 mM sucrose and Complete Protease Inhibitor Cocktail (Sigma Aldrich), and sonicated on ice. Cell debris were removed by centrifugation at 2000×g for 15 minutes. Membrane fractions were isolated by ultracentrifugation (100,000×g), resuspended in the same buffer, and frozen (−80° C.) for later use. The protein concentration was determined with the Pierce™ BCA Protein Assay Kit (Thermo Fisher Scientific). Expression of protein levels was analyzed by immunoblotting with rabbit anti-DGAT2 antibody (Abcam, ab102831) and donkey anti-rabbit IgG H&L Alexa Fluor® 647 (Abcam, ab150075) followed by detection using Typhoon FLA9000 (GE Healthcare).
LC/MS/MS analyses were performed using Thermal Fisher's LX4-TSQ Vantage system. This system consists of an Agilent binary high-performance liquid chromatography (HPLC) pumps and a TSQ Vantage triple quadrupole MS/MS instrument. For each sample, 2 μL samples from the top organic layer of in-plate liquid-liquid extraction were injected onto a Thermo Betabasic C4 column (2.1 mm×20 mm, 5 μm particle size). The samples were then eluted using the following conditions; mobile phase: Isopropanol: acetonitrile/10 mM ammonium formate=50/35/15 (v/v/v), flow rate: 0.8 mL/min, temperature: 25° C. Data was acquired in positive mode using a heated electrospray ionization (HESI) interface. The operational parameters for the TSQ Vantage MS/MS instrument were a spray voltage of 3000 V, capillary temperature of 280° C., vaporizer temperature 400° C., sheath gas 45 arbitrary unit, Aux gas 10 arbitrary units, S-lens 165 and collision gas 1.0 mTorr. […] (SRM) chromatograms of ^13C18-triolein (Q1: 920.8>Q3:621.3) and internal standard ^13C21-triolein (Q1: 923.8>Q3:617.3) were collected for 33 sec. The peak area was integrated by Xcalibur Quan software. The ratio between the ^13C18triolein generated in the reaction and spiked in internal standard ^13C21-triolein was used to generate percentage inhibition and IC50 values. Compound percentage inhibition was calculated by the following formula: Inhibition %=1−[(compound response−low control)/(high control−low control)]×100%. Potent compounds were titrated and IC50 were calculated by 4 parameter sigmoidal curve fitting formula.
DGAT2 activity was determined by measuring the amount of enzymatic product ^13C18-triolein (^13C-1,2,3-Tri(cis-9-octadecenoyl)glycerol) using the membrane prep mentioned above. The assay was carried out in ABgene 384-well assay plates in a final volume of 25 μL at rt. The assay mixture contained the following: assay buffer (100 mM Tris.Cl, pH 7.0, 20 mM MgCl2, 5% ethanol), 25 μM of diolein, 5 μM of ^13C oleoyl-CoA and 8 ng/μL of DGAT2 membrane.
In turn, `CC1(NC(=O)c2cc(Cl)c3c(c2)c(C(C)(C)O)nn3-c2cccc(OC(F)F)c2)CS(=O)(=O)C1` [Example 35, 7-chloro-1-(3-(difluoromethoxy)phenyl)-3-(2-hydroxypropan-2-yl)-N-(3-methy1-l,1-dioxidothietan-3-yl)-1H-indazole-5-carboxamide] registered an IC50 of 9.1 nM.
The value for `C[C@]1(NC(=O)c2ccc3c(c2)c(N2CCC[C@H]2C(=O)O)nn3-c2cccc(OC(F)F)c2)CCS(=O)(=O)C1` [Example 49, (2S)-1-[1-[3-(difluoromethoxy)phenyl]-5-[[(3S)-3-methyl-1,1-dioxo-thiolan-3-yl]carbamoyl]indazol-3-yl]pyrrolidine-2-carboxylic acid] was 351 nM; that for `Cc1cc2c(cc1C(=O)NC1(C)CS(=O)(=O)C1)c(C(C)C)nn2-c1cccc(OC(F)F)c1` [Example 19] was 134 nM.
The figure for `CC1(NC(=O)c2ccc3c(ccn3-c3cccc(OC(F)F)c3)c2)CS(=O)(=O)C1` [Example 8, 1-(3-(difluoromethoxy)phenyl)-N-(3-methyl-1,1-dioxidothietan-3-yl)-1H-indole-5-carboxamide] is 134 nM; for `CC(C)c1nn(-c2cccc(C3CC3)c2)c2ncc(C(=O)NC3(C)CS(=O)(=O)C3)cc12` [Example 16, l-(3-cyclopropylphenyl)-3-isopropyl-N-(3-methyl-1,1-dioxidothietan-3-yl)-1H-pyrazolo[3,4-b]pyridine-5-carboxamide] it is 14 nM.
The value for `CCC(O)c1nn(-c2cccc(OC(F)F)c2)c2ccc(C(=O)NC3(C)CS(=O)(=O)C3)cc12` (single isomer, unassigned) [Example 28b, 1-(3-(difluoromethoxy)phenyl)-3-(1-hydroxypropyl)-N-(3-methyl-1,1-dioxidothietan-3-yl)-1H-indazole-5-carboxamide] was 70 nM.
`C[C@]1(NC(=O)c2ccc3c(c2)c(-c2ccc(F)cc2)cn3-c2ccc(F)cc2)CCS(=O)(=O)C1` [Example 7, (S)-1,3-bis(4-fluorophenyl)-N-(3-methyl-1,1-dioxidotetrahydrothiophen-3-yl)-1H-indole-5-carboxamide] yielded an IC50 of 578 nM. Against the preceding molecule, the IC50 is about 8.3-fold higher.
`C[C@]1(NC(=O)c2ccc3c(c2)c(-c2ccc(F)cc2)cn3-c2cccc(OC(F)F)c2)CCS(=O)(=O)C1` [Example 6, (S)-1-(3-(difluoromethoxy)phenyl)-3-(4-fluorophenyl)-N-(3 - methyl-1,1-dioxidotetrahydrothiophen-3-yl)-1H-indole-5-carboxamide] returned an IC50 of 0.5 nM.
As for `C[C@]1(NC(=O)c2ccc3c(c2)c(S(C)(=O)=O)nn3-c2cccc(OC(F)F)c2)CCS(=O)(=O)C1` [Example 53, (S)-1-(3-(difluoromethoxy)phenyl)-N-(3-methyl-1,1-dioxidotetrahydrothiophen-3-yl)-3-(methylsulfonyl)-1H-indazole-5-carboxamide], the IC50 amounted to 543 nM.
The value for `CC1(NC(=O)c2cnc3c(c2)c(C(C)(C)O)nn3-c2cc(OCC(F)F)ncc2F)CCS(=O)(=O)CC1` [Example 44, 1-(2-(2,2-difluoroethoxy)-5-fluoropyridin-4-yl)-3-(2-hydroxypropan-2-yl)-N-(4-methyl-1,1-dioxidotetrahydro-2H-thiopyran-4-yl)-1H-pyrazolo[3,4-b]pyridine-5-carboxamide] was 2.7 nM; that for `CC1(NC(=O)c2cnc3c(c2)c(C(C)(C)O)nn3-c2cccc(OC(F)(F)F)c2)CS(=O)(=O)C1` [Example 42, 3-(2-hydroxypropan-2-yl)-N-(3-methyl-1,1-dioxidothietan-3-yl)-1-(3-(trifluoromethoxy)phenyl)-1H-pyrazolo[3,4-b]pyridine-5-carboxamide] was 107 nM.
The value for `CCCc1nn(-c2cccc(OC(F)F)c2)c2ncc(C(=O)N[C@@]3(C)CCS(=O)(=O)C3)cc12` [Example 15, (S)-1-(3-(difluoromethoxy)phenyl)-N-(3-methyl-1,1-dioxidotetrahydrothiophen-3-yl)-3-propyl-1H-pyrazolo[3,4-b]pyridine-5-carboxamide] was 6.7 nM.

As a reminder, the IC50 is the concentration that gives 50% inhibition. Read a high IC50 as lower potency.
